Read-outs that look alike come from different tables or passages of the source.
Columns and labels:
[1] = tested on: Amaranthus rudis (AMATA), tall water hemp; assay: Postemergence herbicide evaluation, growth of Amaranthus rudis (AMATA); type: in vivo; settings: Amaranthus tuberculatus, post-emergence, read-out: Ave. AMATA, percent reduction in plant size relative to the untreated control
[2] = tested on: Ambrosia artemisiifolia (AMBEL), common ragweed; assay: Postemergence herbicide evaluation, growth of Ambrosia artemisiifolia (AMBEL); type: in vivo; settings: Ambrosia artemisiifolia, post-emergence, read-out: AVE. AMBEL, percent reduction in plant size relative to the untreated control
[3] = tested on: Abutilon theophrasti (ABUTH), velvetleaf; assay: Postemergence herbicide evaluation, growth of Abutilon theophrasti (ABUTH); type: in vivo; settings: Abutilon theophrasti, post-emergence, read-out: AVE. ABUTH, percent reduction in plant size relative to the untreated control
[4] = tested on: Chenopodium album (CHEAL), common lambsquarters; assay: Postemergence herbicide evaluation, growth of Chenopodium album (CHEAL); type: in vivo; settings: Chenopodium album, post-emergence, read-out: Ave. CHEAL, percent reduction in plant size relative to the untreated control
[5] = tested on: glyphosate resistant Conyza canadensis (L.) (ERICA), horseweed; assay: Postemergence herbicide evaluation, growth of Conyza canadensis (ERICA); type: in vivo; settings: Erigeron canadensis, post-emergence, read-out: Ave. ERICA, percent reduction in plant size relative to the untreated control
[6] = Volatility of compounds measured by thermogravimetric analysis (TGA); type: physicochemical
[7] = tested on: weeds ABUTH, AMATA, AMBEL, CHEAL, ERICA; assay: Postemergence herbicide evaluation, overall average % weed control (ABUTH, AMATA, AMBEL, CHEAL, ERICA); type: in vivo; settings: post-emergence, read-out: Overall Ave % Weed Control

For `CC(C)CONC(=O)COc1ccc(Cl)cc1Cl` [Compound D22], which pest or weed control at 280 g/ha ([1]; 168 h, 280 g ae/ha, 7 DAA) is on record?
Its pest or weed control at 280 g/ha is 80%.

And the pest or weed control at 560 g/ha ([1]; 168 h, 560 g ae/ha, 7 DAA)?
Its pest or weed control at 560 g/ha is 92.5%.

And the pest or weed control at 280 g/ha ([1]; 336 h, 280 g ae/ha, 14 DAA)?
Its pest or weed control at 280 g/ha is 92.5%.

What about the pest or weed control at 560 g/ha ([1]; 336 h, 560 g ae/ha, 14 DAA) of the same compound?
The pest or weed control at 560 g/ha was 92.5%.

And the pest or weed control at 280 g/ha ([1]; 504 h, 280 g ae/ha, 21 DAA)?
Its pest or weed control at 280 g/ha is 87.5%.

And the pest or weed control at 560 g/ha ([1]; 504 h, 560 g ae/ha, 21 DAA)?
The pest or weed control at 560 g/ha was 100%.

What about the pest or weed control at 280 g/ha ([2]; 168 h, 280 g ae/ha, 7 DAA) of the same compound?
Its pest or weed control at 280 g/ha is 90%.

What about the pest or weed control at 560 g/ha ([2]; 168 h, 560 g ae/ha, 7 DAA) of the same compound?
Its pest or weed control at 560 g/ha is 85%.

What about the pest or weed control at 280 g/ha ([2]; 336 h, 280 g ae/ha, 14 DAA) of the same compound?
The pest or weed control at 280 g/ha was 90%.

And the pest or weed control at 560 g/ha ([2]; 336 h, 560 g ae/ha, 14 DAA)?
Its pest or weed control at 560 g/ha is 97.5%.

What about the pest or weed control at 280 g/ha ([2]; 504 h, 280 g ae/ha, 21 DAA) of the same compound?
Its pest or weed control at 280 g/ha is 100%.

And the pest or weed control at 560 g/ha ([2]; 504 h, 560 g ae/ha, 21 DAA)?
Its pest or weed control at 560 g/ha is 100%.

And the pest or weed control at 280 g/ha ([3]; 168 h, 280 g ae/ha, 7 DAA)?
Its pest or weed control at 280 g/ha is 72.5%.

What about the pest or weed control at 560 g/ha ([3]; 168 h, 560 g ae/ha, 7 DAA) of the same compound?
The pest or weed control at 560 g/ha was 82.5%.

What about the pest or weed control at 280 g/ha ([3]; 336 h, 280 g ae/ha, 14 DAA) of the same compound?
Its pest or weed control at 280 g/ha is 93.5%.

What about the pest or weed control at 560 g/ha ([3]; 336 h, 560 g ae/ha, 14 DAA) of the same compound?
Its pest or weed control at 560 g/ha is 98.5%.

And the pest or weed control at 280 g/ha ([3]; 504 h, 280 g ae/ha, 21 DAA)?
Its pest or weed control at 280 g/ha is 100%.

What about the pest or weed control at 560 g/ha ([3]; 504 h, 560 g ae/ha, 21 DAA) of the same compound?
Its pest or weed control at 560 g/ha is 99%.

And the pest or weed control at 280 g/ha ([4]; 168 h, 280 g ae/ha, 7 DAA)?
Its pest or weed control at 280 g/ha is 80%.

And the pest or weed control at 560 g/ha ([4]; 168 h, 560 g ae/ha, 7 DAA)?
Its pest or weed control at 560 g/ha is 82.5%.

What about the pest or weed control at 280 g/ha ([4]; 336 h, 280 g ae/ha, 14 DAA) of the same compound?
The pest or weed control at 280 g/ha was 91.5%.

What about the pest or weed control at 560 g/ha ([4]; 336 h, 560 g ae/ha, 14 DAA) of the same compound?
The pest or weed control at 560 g/ha was 99%.

What about the pest or weed control at 280 g/ha ([4]; 504 h, 280 g ae/ha, 21 DAA) of the same compound?
Its pest or weed control at 280 g/ha is 97.5%.

And the pest or weed control at 560 g/ha ([4]; 504 h, 560 g ae/ha, 21 DAA)?
Its pest or weed control at 560 g/ha is 97.5%.

What about the pest or weed control at 280 g/ha ([5]; 168 h, 280 g ae/ha, 7 DAA) of the same compound?
The pest or weed control at 280 g/ha was 85%.

What about the pest or weed control at 560 g/ha ([5]; 168 h, 560 g ae/ha, 7 DAA) of the same compound?
The pest or weed control at 560 g/ha was 85%.

What about the pest or weed control at 280 g/ha ([5]; 336 h, 280 g ae/ha, 14 DAA) of the same compound?
Its pest or weed control at 280 g/ha is 100%.

And the pest or weed control at 560 g/ha ([5]; 336 h, 560 g ae/ha, 14 DAA)?
Its pest or weed control at 560 g/ha is 99%.

What about the pest or weed control at 280 g/ha ([5]; 504 h, 280 g ae/ha, 21 DAA) of the same compound?
The pest or weed control at 280 g/ha was 100%.

What about the pest or weed control at 560 g/ha ([5]; 504 h, 560 g ae/ha, 21 DAA) of the same compound?
The pest or weed control at 560 g/ha was 100%.

What about the “TGA Data (rate of weight loss, volatility)” value [6] of the same compound?
Its value is 0.2649 µg/min.

What about the pest or weed control at 280 g/ha ([7]; 168 h, 280 g ae/ha, 7 DAA) of the same compound?
Its pest or weed control at 280 g/ha is 81.5%.

What about the pest or weed control at 560 g/ha ([7]; 168 h, 560 g ae/ha, 7 DAA) of the same compound?
Its pest or weed control at 560 g/ha is 85.5%.

And the pest or weed control at 280 g/ha ([7]; 336 h, 280 g ae/ha, 14 DAA)?
The pest or weed control at 280 g/ha was 93.5%.

What about the pest or weed control at 560 g/ha ([7]; 336 h, 560 g ae/ha, 14 DAA) of the same compound?
The pest or weed control at 560 g/ha was 97.3%.

What about the pest or weed control at 280 g/ha ([7]; 504 h, 280 g ae/ha, 21 DAA) of the same compound?
Its pest or weed control at 280 g/ha is 97%.

And the pest or weed control at 560 g/ha ([7]; 504 h, 560 g ae/ha, 21 DAA)?
Its pest or weed control at 560 g/ha is 99.3%.

With `O=C(COc1ccc(Cl)cc1Cl)Nc1ccncc1` [Compound D1, 2-(2,4-Dichlorophenoxy)-N-(pyridin-4-yl)acetamide] as the compound, how does the pest or weed control at 280 g/ha ([1]; 168 h) read?
The pest or weed control at 280 g/ha was 68%.

What about the pest or weed control at 560 g/ha ([1]; 168 h) of the same compound?
The pest or weed control at 560 g/ha was 78%.

And the pest or weed control at 280 g/ha ([1]; 336 h)?
Its pest or weed control at 280 g/ha is 75%.

And the pest or weed control at 560 g/ha ([1]; 336 h)?
The pest or weed control at 560 g/ha was 85%.

What about the pest or weed control at 280 g/ha ([1]; 504 h) of the same compound?
Its pest or weed control at 280 g/ha is 78%.

And the pest or weed control at 560 g/ha ([1]; 504 h)?
The pest or weed control at 560 g/ha was 90%.

What about the pest or weed control at 280 g/ha ([2]; 168 h) of the same compound?
Its pest or weed control at 280 g/ha is 60%.

And the pest or weed control at 560 g/ha ([2]; 168 h)?
The pest or weed control at 560 g/ha was 65%.

What about the pest or weed control at 280 g/ha ([2]; 336 h) of the same compound?
The pest or weed control at 280 g/ha was 89%.

And the pest or weed control at 560 g/ha ([2]; 336 h)?
Its pest or weed control at 560 g/ha is 94%.

And the pest or weed control at 280 g/ha ([2]; 504 h)?
The pest or weed control at 280 g/ha was 78%.

What about the pest or weed control at 560 g/ha ([2]; 504 h) of the same compound?
Its pest or weed control at 560 g/ha is 99%.

What about the pest or weed control at 280 g/ha ([3]; 168 h) of the same compound?
Its pest or weed control at 280 g/ha is 78%.

And the pest or weed control at 560 g/ha ([3]; 168 h)?
Its pest or weed control at 560 g/ha is 78%.

What about the pest or weed control at 280 g/ha ([3]; 336 h) of the same compound?
Its pest or weed control at 280 g/ha is 88%.

And the pest or weed control at 560 g/ha ([3]; 336 h)?
The pest or weed control at 560 g/ha was 80%.

And the pest or weed control at 280 g/ha ([3]; 504 h)?
The pest or weed control at 280 g/ha was 93%.

What about the pest or weed control at 560 g/ha ([3]; 504 h) of the same compound?
Its pest or weed control at 560 g/ha is 87%.

And the pest or weed control at 280 g/ha ([4]; 168 h)?
Its pest or weed control at 280 g/ha is 68%.

What about the pest or weed control at 560 g/ha ([4]; 168 h) of the same compound?
The pest or weed control at 560 g/ha was 75%.

What about the pest or weed control at 280 g/ha ([4]; 336 h) of the same compound?
The pest or weed control at 280 g/ha was 78%.

And the pest or weed control at 560 g/ha ([4]; 336 h)?
Its pest or weed control at 560 g/ha is 85%.

And the pest or weed control at 280 g/ha ([4]; 504 h)?
The pest or weed control at 280 g/ha was 97%.

And the pest or weed control at 560 g/ha ([4]; 504 h)?
The pest or weed control at 560 g/ha was 93%.

What about the pest or weed control at 280 g/ha ([5]; 168 h) of the same compound?
Its pest or weed control at 280 g/ha is 70%.

What about the pest or weed control at 560 g/ha ([5]; 168 h) of the same compound?
The pest or weed control at 560 g/ha was 65%.

What about the pest or weed control at 280 g/ha ([5]; 336 h) of the same compound?
The pest or weed control at 280 g/ha was 88%.

And the pest or weed control at 560 g/ha ([5]; 336 h)?
Its pest or weed control at 560 g/ha is 90%.

And the pest or weed control at 280 g/ha ([5]; 504 h)?
Its pest or weed control at 280 g/ha is 99%.

What about the pest or weed control at 560 g/ha ([5]; 504 h) of the same compound?
Its pest or weed control at 560 g/ha is 97%.

What about the “TGA Data (rate of weight loss, volatility)” value [6] of the same compound?
The value was 0.05 µg/min.

What about the pest or weed control at 280 g/ha ([7]; 168 h) of the same compound?
Its pest or weed control at 280 g/ha is 69%.

What about the pest or weed control at 560 g/ha ([7]; 168 h) of the same compound?
The pest or weed control at 560 g/ha was 72%.

What about the pest or weed control at 280 g/ha ([7]; 336 h) of the same compound?
Its pest or weed control at 280 g/ha is 83%.

What about the pest or weed control at 560 g/ha ([7]; 336 h) of the same compound?
Its pest or weed control at 560 g/ha is 87%.

And the pest or weed control at 280 g/ha ([7]; 504 h)?
Its pest or weed control at 280 g/ha is 89%.

What about the pest or weed control at 560 g/ha ([7]; 504 h) of the same compound?
The pest or weed control at 560 g/ha was 93%.

Reference: patent US20260042731A1, “(2,4-DICHLOROPHENOXY)ACETIC ACID ANALOGS” (CORTEVA AGRISCIENCE LLC, priority 2022, published 2026)
